Experimental data taken from ChEMBL document CHEMBL4765227, “Hit to lead optimization of a series of N-[4-(1,3-benzothiazol-2-yl)phenyl]acetamides as monoacylglycerol lipase inhibitors with potential anticancer activity” (Eur J Med Chem, 2016).

Legend:
Format in all cases: functional
Conditions in all cases: read-out: GI
NCI-H522 = test: Growth inhibition of human NCI-H522 cells at 10 uM incubated for 48 hrs by sulforhodamine B assay relative to control
UACC-62 = test: Growth inhibition of human UACC-62 cells at 10 uM incubated for 48 hrs by sulforhodamine B assay relative to control
HOP-62 = test: Growth inhibition of human HOP-62 cells at 10 uM incubated for 48 hrs by sulforhodamine B assay relative to control
OVCAR-8 = test: Growth inhibition of human OVCAR-8 cells at 10 uM incubated for 48 hrs by sulforhodamine B assay relative to control
NCI-H226 = test: Growth inhibition of human NCI-H226 cells at 10 uM incubated for 48 hrs by sulforhodamine B assay relative to control
MDA-MB-468 = test: Growth inhibition of human MDA-MB-468 cells at 10 uM incubated for 48 hrs by sulforhodamine B assay relative to control
SW-620 = test: Growth inhibition of human SW-620 cells at 10 uM incubated for 48 hrs by sulforhodamine B assay relative to control
K562 = test: Growth inhibition of human K562 cells at 10 uM incubated for 48 hrs by sulforhodamine B assay relative to control
MDA-MB-231 = test: Growth inhibition of human MDA-MB-231 cells at 10 uM incubated for 48 hrs by sulforhodamine B assay relative to control
MOLT-4 = test: Growth inhibition of human MOLT-4 cells at 10 uM incubated for 48 hrs by sulforhodamine B assay relative to control
SN12C = test: Growth inhibition of human SN12C cells at 10 uM incubated for 48 hrs by sulforhodamine B assay relative to control
MDA-MB-435 = test: Growth inhibition of human MDA-MB-435 cells at 10 uM incubated for 48 hrs by sulforhodamine B assay relative to control
HCC 2998 = test: Growth inhibition of human HCC 2998 cells at 10 uM incubated for 48 hrs by sulforhodamine B assay relative to control
KM12 = test: Growth inhibition of human KM12 cells at 10 uM incubated for 48 hrs by sulforhodamine B assay relative to control
SK-MEL-5 = test: Growth inhibition of human SK-MEL-5 cells at 10 uM incubated for 48 hrs by sulforhodamine B assay relative to control
NCI-H322M = test: Growth inhibition of human NCI-H322M cells at 10 uM incubated for 48 hrs by sulforhodamine B assay relative to control
IGROV-1 = test: Growth inhibition of human IGROV-1 cells at 10 uM incubated for 48 hrs by sulforhodamine B assay relative to control
T47D = test: Growth inhibition of human T47D cells at 10 uM incubated for 48 hrs by sulforhodamine B assay relative to control
CCRF-CEM = test: Growth inhibition of human CCRF-CEM cells at 10 uM incubated for 48 hrs by sulforhodamine B assay relative to control
SK-OV-3 = test: Growth inhibition of human SK-OV-3 cells at 10 uM incubated for 48 hrs by sulforhodamine B assay relative to control
ACHN = test: Growth inhibition of human ACHN cells at 10 uM incubated for 48 hrs by sulforhodamine B assay relative to control
BT-549 = test: Growth inhibition of human BT-549 cells at 10 uM incubated for 48 hrs by sulforhodamine B assay relative to control
SK-MEL-28 = test: Growth inhibition of human SK-MEL-28 cells at 10 uM incubated for 48 hrs by sulforhodamine B assay relative to control
RXF 393 = test: Growth inhibition of human RXF 393 cells at 10 uM incubated for 48 hrs by sulforhodamine B assay relative to control
TK-10 = test: Growth inhibition of human TK-10 cells at 10 uM incubated for 48 hrs by sulforhodamine B assay relative to control
HOP-92 = test: Growth inhibition of human HOP-92 cells at 10 uM incubated for 48 hrs by sulforhodamine B assay relative to control
PC-3 = test: Growth inhibition of human PC-3 cells at 10 uM incubated for 48 hrs by sulforhodamine B assay relative to control
HL-60(TB) = test: Growth inhibition of human HL-60(TB) cells at 10 uM incubated for 48 hrs by sulforhodamine B assay relative to control
UO-31 = test: Growth inhibition of human UO-31 cells at 10 uM incubated for 48 hrs by sulforhodamine B assay relative to control
OVCAR-5 = test: Growth inhibition of human OVCAR-5 cells at 10 uM incubated for 48 hrs by sulforhodamine B assay relative to control
M14 = test: Growth inhibition of human M14 cells at 10 uM incubated for 48 hrs by sulforhodamine B assay relative to control
CAKI-1 = test: Growth inhibition of human CAKI-1 cells at 10 uM incubated for 48 hrs by sulforhodamine B assay relative to control
DU-145 = test: Growth inhibition of human DU-145 cells at 10 uM incubated for 48 hrs by sulforhodamine B assay relative to control
RPMI-8226 = test: Growth inhibition of human RPMI-8226 cells at 10 uM incubated for 48 hrs by sulforhodamine B assay relative to control
HCT-116 = test: Growth inhibition of human HCT-116 cells at 10 uM incubated for 48 hrs by sulforhodamine B assay relative to control
A549 = test: Growth inhibition of human A549/ATCC cells at 10 uM incubated for 48 hrs by sulforhodamine B assay relative to control
NCI-H460 = test: Growth inhibition of human NCI-H460 cells at 10 uM incubated for 48 hrs by sulforhodamine B assay relative to control
U-251 = test: Growth inhibition of human U-251 cells at 10 uM incubated for 48 hrs by sulforhodamine B assay relative to control
SNB-19 = test: Growth inhibition of human SNB-19 cells at 10 uM incubated for 48 hrs by sulforhodamine B assay relative to control
HCT-15 = test: Growth inhibition of human HCT-15 cells at 10 uM incubated for 48 hrs by sulforhodamine B assay relative to control
SNB-75 = test: Growth inhibition of human SNB-75 cells at 10 uM incubated for 48 hrs by sulforhodamine B assay relative to control
HT-29 = test: Growth inhibition of human HT-29 cells at 10 uM incubated for 48 hrs by sulforhodamine B assay relative to control
Malme-3M = test: Growth inhibition of human Malme-3M cells at 10 uM incubated for 48 hrs by sulforhodamine B assay relative to control
NCI/ADR-RES = test: Growth inhibition of human NCI/ADR-RES cells at 10 uM incubated for 48 hrs by sulforhodamine B assay relative to control

With O=C(CN1C(=O)C(=O)c2ccccc21)Nc1ccc(-c2nc3ccccc3s2)cc1 the inhibition of growth at 10 µM (NCI-H522) was 4.88%, the inhibition of growth at 10 µM (UACC-62) was -6.27% and the inhibition of growth at 10 µM (HOP-62) was -12.7%. The inhibition of growth at 10 µM (OVCAR-8) was 4.11%, the inhibition of growth at 10 µM (NCI-H226) was 9.37% and the inhibition of growth at 10 µM (MDA-MB-468) was 72.6%. The inhibition of growth at 10 µM (SW-620) was -0.74%, the inhibition of growth at 10 µM (K562) was 21.3% and the inhibition of growth at 10 µM (MDA-MB-231) was 6.18%. It also gave an inhibition of growth at 10 µM (MOLT-4) of 47.5%, an inhibition of growth at 10 µM (SN12C) of 4.5% and an inhibition of growth at 10 µM (MDA-MB-435) of -3.52%. For the same compound, the inhibition of growth at 10 µM (HCC 2998) was -1.9%, the inhibition of growth at 10 µM (KM12) was 0.88% and the inhibition of growth at 10 µM (SK-MEL-5) was 16.6%. It also gave an inhibition of growth at 10 µM (NCI-H322M) of -0.03%, an inhibition of growth at 10 µM (IGROV-1) of -0.62% and an inhibition of growth at 10 µM (T47D) of 29.4%. For the same compound, the inhibition of growth at 10 µM (CCRF-CEM) was 21.8%, the inhibition of growth at 10 µM (SK-OV-3) was -10.3% and the inhibition of growth at 10 µM (ACHN) was -0.81%. For the same compound, the inhibition of growth at 10 µM (BT-549) was -3.83%, the inhibition of growth at 10 µM (SK-MEL-28) was -15.4% and the inhibition of growth at 10 µM (RXF 393) was 4.81%. It also gave an inhibition of growth at 10 µM (TK-10) of -13.3%, an inhibition of growth at 10 µM (HOP-92) of 32.6% and an inhibition of growth at 10 µM (PC-3) of 28.6%. It also gave an inhibition of growth at 10 µM (HL-60(TB)) of 5.84%, an inhibition of growth at 10 µM (UO-31) of 15.5% and an inhibition of growth at 10 µM (OVCAR-5) of -12.7%. The inhibition of growth at 10 µM (M14) was -6.04%, the inhibition of growth at 10 µM (CAKI-1) was -1.81% and the inhibition of growth at 10 µM (DU-145) was 2.58%. The inhibition of growth at 10 µM (RPMI-8226) was 15%, the inhibition of growth at 10 µM (HCT-116) was 9.11% and the inhibition of growth at 10 µM (A549) was 2.72%. The inhibition of growth at 10 µM (NCI-H460) was -2.87%, the inhibition of growth at 10 µM (U-251) was 8.34% and the inhibition of growth at 10 µM (SNB-19) was 5.55%. For the same compound, the inhibition of growth at 10 µM (HCT-15) was 2.95%, the inhibition of growth at 10 µM (SNB-75) was 9.83% and the inhibition of growth at 10 µM (HT-29) was -6.9%. For the same compound, the inhibition of growth at 10 µM (Malme-3M) was -2.34% and the inhibition of growth at 10 µM (NCI/ADR-RES) was -2.79%.
